Data: patent US11814367B2, “Inhibitors of glycogen synthase 1 (GYS1) and methods of use thereof” (Maze Therapeutics, Inc., priority 2021, dated 2023)

Key:
[1] = biological target: hGYS1 enzyme (recombinant hGYS1/GN1 protein) (Homo sapiens (Human), UniProt P13807); experiment: GYS1 coupled enzyme assay (PK/LDH); format: biochemical; details: hGYS1/GN1 50 nM, UDP-Glucose 0.8 mM, G6P 1 mM; geometric mean of at least 2 runs
[2] = system: hGYS1 enzyme / glycogen synthesis in HeLa cells; experiment: GYS1 cell based assay (glycogen synthesis, Glucose-glo); set-up: species or system human; details: Homo sapiens, HeLa, 24 h, 24 h incubation, 20 mM glucose, geometric mean of at least 2 runs
Outline: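 HeLa cells starved 24 h in medium containing only 1× Glutamax were plated onto compound in medium with 20 mM glucose (1% DMSO final) for 24 h, 37 °C, 5% CO2. Acid lysates were Tris-quenched, glucoamylase-digested (pH 5.3, 1 h, 37 °C) and read by Glucose-glo luminescence. IC50 came from Hill fits, as geometric mean of ≥2 runs.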

Chain of hGYS1 enzyme (recombinant hGYS1/GN1 protein) (P13807 whole entry): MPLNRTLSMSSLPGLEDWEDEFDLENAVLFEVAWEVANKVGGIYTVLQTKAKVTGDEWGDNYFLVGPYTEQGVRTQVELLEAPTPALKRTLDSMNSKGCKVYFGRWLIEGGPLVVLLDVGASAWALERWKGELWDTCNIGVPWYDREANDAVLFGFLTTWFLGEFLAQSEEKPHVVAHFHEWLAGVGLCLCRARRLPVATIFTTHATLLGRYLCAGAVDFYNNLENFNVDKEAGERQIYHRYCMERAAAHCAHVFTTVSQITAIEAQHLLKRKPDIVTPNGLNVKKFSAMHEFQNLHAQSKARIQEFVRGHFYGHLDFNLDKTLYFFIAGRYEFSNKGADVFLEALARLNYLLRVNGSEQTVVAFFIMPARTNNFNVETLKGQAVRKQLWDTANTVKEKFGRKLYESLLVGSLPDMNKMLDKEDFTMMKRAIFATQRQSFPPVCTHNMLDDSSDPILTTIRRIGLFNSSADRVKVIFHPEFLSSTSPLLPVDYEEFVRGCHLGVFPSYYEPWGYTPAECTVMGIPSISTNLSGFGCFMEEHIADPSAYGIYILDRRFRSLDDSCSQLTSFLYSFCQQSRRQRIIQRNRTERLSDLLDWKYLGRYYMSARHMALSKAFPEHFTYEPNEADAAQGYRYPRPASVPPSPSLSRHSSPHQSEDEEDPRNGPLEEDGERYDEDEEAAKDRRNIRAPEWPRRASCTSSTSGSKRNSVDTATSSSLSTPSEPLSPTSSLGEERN
Chain of hGYS1 enzyme (recombinant hGYS1/GN1 protein) (P46976 whole entry partner): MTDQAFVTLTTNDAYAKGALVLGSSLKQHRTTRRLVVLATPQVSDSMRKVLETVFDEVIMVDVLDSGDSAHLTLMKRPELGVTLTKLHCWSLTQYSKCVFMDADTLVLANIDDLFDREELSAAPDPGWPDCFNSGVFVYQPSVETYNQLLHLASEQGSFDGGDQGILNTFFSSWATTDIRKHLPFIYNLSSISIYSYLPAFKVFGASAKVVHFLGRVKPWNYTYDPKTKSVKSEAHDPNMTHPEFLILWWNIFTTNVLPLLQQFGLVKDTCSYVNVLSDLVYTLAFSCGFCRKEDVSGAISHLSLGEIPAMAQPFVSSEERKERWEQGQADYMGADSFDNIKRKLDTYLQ

With `CC(C)c1ccc([C@@H](NC(=O)[C@@H]2C[C@@H](F)CN2C(=O)Cc2noc(=O)n2C)c2ccccc2)nc1` [Compound 267, (2S,4R)-4-fluoro-1-[2-(4-methyl-5-oxo-4,5-dihydro-1,2,4-oxadiazol-3-yl)acetyl]-N-[(S)-phenyl[5-(propan-2-yl)pyridin-2-yl]methyl]pyrrolidine-2-carboxamide] as the compound, how does the IC50 [1] read?
The IC50 was 464 nM.

What about the IC50 [2] of the same compound?
The IC50 was 4300 nM.

How did the IC50 [1] turn out when `CC(C)c1ccc([C@@H](NC(=O)[C@@H]2C[C@@H](F)CN2C(=O)Cn2cnnc2)c2ccccc2)nc1` [Compound 285, (2S,4R)-4-fluoro-N-[(S)-phenyl[5-(propan-2-yl)pyridin-2-yl]methyl]-1-[2-(4H-1,2,4-triazol-4-yl)acetyl]pyrrolidine-2-carboxamide] was run?
The IC50 was 149 nM.

And the IC50 [2]?
The IC50 was > 18600 nM.

With `CC(C)c1ccc([C@@H](NC(=O)[C@@H]2C[C@@H](F)CN2C(=O)Cc2noc(=O)[nH]2)c2ccccc2)nc1` [Compound 286, (2S,4R)-4-fluoro-1-[2-(5-oxo-4,5-dihydro-1,2,4-oxadiazol-3-yl)acetyl]-N-[(S)-phenyl[5-(propan-2-yl)pyridin-2-yl]methyl]pyrrolidine-2-carboxamide] as the compound, how does the IC50 [1] read?
Its IC50 is 147 nM.

What about the IC50 [2] of the same compound?
Its IC50 is > 30000 nM.

Which IC50 [1] does the source give for `O=C(N[C@@H](c1ccccc1)c1ccc(C2CC2)c(F)n1)[C@@H]1C[C@@H](F)CN1C(=O)Cc1cccn2c(=O)[nH]nc12` [Compound 297, (2S,4R)-N-[(S)-(5-cyclopropyl-6-fluoropyridin-2-yl)(phenyl)methyl]-4-fluoro-1-(2-{3-oxo-2H,3H-[1,2,4]triazolo[4,3-a]pyridin-8-yl}acetyl)pyrrolidine-2-carboxamide] here?
The IC50 was 15 nM.

And the IC50 [2]?
The IC50 was 700 nM.

With `CC(C)c1ccc([C@@H](NC(=O)[C@@H]2C[C@@H](F)CN2C(=O)Cc2nn(C)c(=O)[nH]2)c2ccccc2)nc1F` [Compound 397, (2S,4R)-4-fluoro-N-[(S)-[6-fluoro-5-(propan-2-yl)pyridin-2-yl](phenyl)methyl]-1-[2-(1-methyl-5-oxo-4,5-dihydro-1H-1,2,4-triazol-3-yl)acetyl] pyrrolidine-2-carboxamide] as the compound, how does the IC50 [1] read?
The IC50 was 9 nM.

And the IC50 [2]?
Its IC50 is 400 nM.

For `O=C(N[C@@H](c1ccccc1)c1ccc(C2CC2)c(F)c1)[C@@H]1C[C@@H](F)CN1C(=O)CN1CCOCC1=O` [Compound 423, (2S,4R)-N-[(S)-(4-cyclopropyl-3-fluorophenyl)(phenyl)methyl]-4-fluoro-1-[2-(3-oxomorpholin-4-yl)acetyl]pyrrolidine-2-carboxamide], which IC50 [1] is on record?
The IC50 was 350 nM.

And the IC50 [2]?
The IC50 was > 9260 nM.

Which IC50 [1] does the source give for `O=C(N[C@@H](c1ccccc1)c1ccc(C2CC2)c(F)c1)[C@@H]1C[C@@H](F)CN1C(=O)Cc1cc2ccccc2[nH]1` [Compound 460, (2S,4R)-N-[(S)-(4-cyclopropyl-3-fluorophenyl)(phenyl)methyl]-4-fluoro-1-[2-(1H-indol-2-yl)acetyl] pyrrolidine-2-carboxamide] here?
Its IC50 is 187 nM.

And the IC50 [2]?
The IC50 was 2420 nM.

How did the IC50 [1] turn out when `CC(C)(C)OC(=O)n1c(CC(=O)N2C[C@H](F)C[C@H]2C(=O)N[C@@H](c2ccccc2)c2ccc(C3CC3)c(F)c2)cc2ccccc21` [Compound 461, tert-butyl 2-{2-[(2S,4R)-2-{[(S)-(4-cyclopropyl-3-fluorophenyl)(phenyl)methyl]carbamoyl}-4-fluoropyrrolidin-1-yl]-2-oxoethyl}-1H-indole-1-carboxylate] was run?
The IC50 was 26 nM.

And the IC50 [2]?
The IC50 was 570 nM.

With `CCn1cc(N(C)CC(=O)N2C[C@H](F)C[C@H]2C(=O)N[C@@H](c2ccccc2)c2ccc(C3CC3)c(F)c2)nn1` [Compound 473, (2S,4R)-N-[(S)-(4-cyclopropyl-3-fluorophenyl)(phenyl)methyl]-1-{2-[(1-ethyl-1H-1,2,3-triazol-4-yl)(methyl)amino]acetyl}-4-fluoropyrrolidine-2-carboxamide] as the compound, how does the IC50 [1] read?
The IC50 was 100 nM.

And the IC50 [2]?
The IC50 was 1770 nM.

Which IC50 [1] does the source give for `O=C(N[C@@H](c1ccccc1)c1ccc(C2CC2)c(F)c1)[C@@H]1C[C@@H](F)CN1C(=O)CCc1n[nH]c(=O)[nH]1` [Compound 493, (2S,4R)-N-[(S)-(4-cyclopropyl-3-fluorophenyl)(phenyl)methyl]-4-fluoro-1-[3-(5-oxo-4,5-dihydro-1H-1,2,4-triazol-3-yl)propanoyl]pyrrolidine-2-carboxamide] here?
The IC50 was 103 nM.

What about the IC50 [2] of the same compound?
The IC50 was 15800 nM.

What does the source list for `Cn1c(CC(=O)N2C[C@H](F)C[C@H]2C(=O)N[C@@H](c2ccccc2)c2ccc(C3CC3)c(F)c2)noc1=O` [Compound 494, (2S,4R)-N-[(S)-(4-cyclopropyl-3-fluorophenyl)(phenyl)methyl]-4-fluoro-1-[2-(4-methyl-5-oxo-4,5-dihydro-1,2,4-oxadiazol-3-yl)acetyl]pyrrolidine-2-carboxamide]?
IC50 [1]: 661 nM; IC50 [2]: 12400 nM

`O=C(N[C@H](c1ccccc1)c1ccc(C2CC(F)(F)C2)c(F)n1)[C@@H]1C[C@@H](F)CN1C(=O)Cc1ccc[nH]c1=O` [Compound 521, (2S,4R)-N-[(R)-[5-(3,3-difluorocyclobutyl)-6-fluoropyridin-2-yl](phenyl)methyl]-4-fluoro-1-[2-(2-oxo-1,2-dihydropyridin-3-yl)acetyl]pyrrolidine-2-carboxamide] was tested. Which IC50 [1] did it give?
The IC50 was 2610 nM.

And the IC50 [2]?
Its IC50 is > 30000 nM.

How did the IC50 [1] turn out when `CCn1cc(CC(=O)N2C[C@H](F)C[C@H]2C(=O)N[C@@H](c2ccccc2)c2ccc(C3CC(F)(F)C3)c(F)n2)cc(C)c1=O` [Compound 523, (2S,4R)-N-[(S)-[5-(3,3-difluorocyclobutyl)-6-fluoropyridin-2-yl](phenyl)methyl]-1-[2-(1-ethyl-5-methyl-6-oxo-1,6-dihydropyridin-3-yl)acetyl]-4-fluoropyrrolidine-2-carboxamide] was run?
The IC50 was 5 nM.

And the IC50 [2]?
Its IC50 is 80 nM.

Which results are given for `CCOc1ncc(CC(=O)N2C[C@H](F)C[C@H]2C(=O)N[C@@H](c2ccccc2)c2ccc(C3CC(F)(F)C3)c(F)n2)cc1C` [Compound 524, (2S,4R)-N-[(S)-[5-(3,3-difluorocyclobutyl)-6-fluoropyridin-2-yl](phenyl)methyl]-1-[2-(6-ethoxy-5-methylpyridin-3-yl)acetyl]-4-fluoropyrrolidine-2-carboxamide]?
IC50 [1]: 6 nM; IC50 [2]: 190 nM

With `CCn1cc(C)cc(CC(=O)N2C[C@H](F)C[C@H]2C(=O)N[C@@H](c2ccccc2)c2ccc(C3CC(F)(F)C3)c(F)n2)c1=O` [Compound 525, (2S,4R)-N-[(S)-[5-(3,3-difluorocyclobutyl)-6-fluoropyridin-2-yl](phenyl)methyl]-1-[2-(1-ethyl-5-methyl-2-oxo-1,2-dihydropyrdin-3-yl)acetyl]-4-fluoropyrrolidine-2-carboxamide] as the compound, how does the IC50 [1] read?
The IC50 was 4 nM.

And the IC50 [2]?
Its IC50 is 50 nM.

Which IC50 [1] does the source give for `CCn1cccc(CC(=O)N2C[C@H](F)C[C@H]2C(=O)N[C@@H](c2ccccc2)c2ccc(C3CC(F)(F)C3)c(F)n2)c1=O` [Compound 526, (2S,4R)-N-[(S)-[5-(3,3-difluorocyclobutyl)-6-fluoropyridin-2-yl](phenyl)methyl]-1-[2-(1-ethyl-2-oxo-1,2-dihydropyridin-3-yl)acetyl]-4-fluoropyrrolidine-2-carboxamide] here?
Its IC50 is 11 nM.

What about the IC50 [2] of the same compound?
The IC50 was 130 nM.

What does the source list for `CCn1cc(CC(=O)N2C[C@H](F)C[C@H]2C(=O)N[C@@H](c2ccccc2)c2ccc(C3CC(F)(F)C3)c(F)n2)ncc1=O` [Compound 527, (2S,4R)-N-[(S)-[5-(3,3-difluorocyclobutyl)-6-fluoropyridin-2-yl](phenyl)methyl]-1-[2-(4-ethyl-5-oxo-4,5-dihydropyrazin-2-yl)acetyl]-4-fluoropyrrolidine-2-carboxamide]?
IC50 [1]: 7 nM; IC50 [2]: 250 nM

With `O=C(N[C@@H](c1ccccc1)c1ccc(C2CC(F)(F)C2)c(F)n1)[C@@H]1C[C@@H](F)CN1C(=O)Cc1nc(C(F)(F)F)co1` [Compound 528, (2S,4R)-N-[(S)-[5-(3,3-difluorocyclobutyl)-6-fluoropyridin-2-yl](phenyl)methyl]-4-fluoro-1-{2-[4-(trifluoromethyl)-1,3-oxazol-2-yl]acetyl}pyrrolidine-2-carboxamide] as the compound, how does the IC50 [1] read?
The IC50 was 15 nM.

What about the IC50 [2] of the same compound?
The IC50 was 330 nM.

What does the source list for `O=C(N[C@@H](c1ccccc1)c1ccc(C2CC(F)(F)C2)c(F)n1)[C@@H]1C[C@@H](F)CN1C(=O)Cc1ncc[nH]c1=O` [Compound 529, (2S,4R)-N-[(S)-[5-(3,3-difluorocyclobutyl)-6-fluoropyridin-2-yl](phenyl)methyl]-4-fluoro-1-[2-(3-oxo-3,4-dihydropyrazin-2-yl)acetyl]pyrrolidine-2-carboxamide]?
IC50 [1]: 16 nM; IC50 [2]: 1040 nM

How did the IC50 [1] turn out when `O=C(N[C@@H](c1ccccc1)c1ccc(C2CC(F)(F)C2)c(F)n1)[C@@H]1C[C@@H](F)CN1C(=O)Cc1c[nH]c(=O)cn1` [Compound 530, (2S,4R)-N-[(S)-[5-(3,3-difluorocyclobutyl)-6-fluoropyridin-2-yl](phenyl)methyl]-4-fluoro-l-[2-(5-oxo-4,5-dihydropyrazin-2-yl)acetyl]pyrrolidine-2-carboxamide] was run?
The IC50 was 12 nM.

And the IC50 [2]?
The IC50 was 910 nM.

`CCn1ccnc(CC(=O)N2C[C@H](F)C[C@H]2C(=O)N[C@@H](c2ccccc2)c2ccc(C3CC(F)(F)C3)c(F)n2)c1=O` [Compound 531, (2S,4R)-N-[(S)-[5-(3,3-difluorocyclobutyl)-6-fluoropyridin-2-yl](phenyl)methyl]-1-[2-(4-ethyl-3-oxo-3,4-dihydropyrazin-2-yl)acetyl]-4-fluoropyrrolidine-2-carboxamide] was tested. Which IC50 [1] did it give?
The IC50 was 8 nM.

And the IC50 [2]?
Its IC50 is 60 nM.

What does the source list for `O=C(N[C@@H](c1ccccc1)c1ccc(C2CC(F)(F)C2)cn1)[C@@H]1C[C@@H](F)CN1C(=O)Cc1nc(C(F)(F)F)co1` [Compound 543, (2S,4R)-N-[(S)-[5-(3,3-difluorocyclobutyl)pyridin-2-yl](phenyl)methyl]-4-fluoro-1-{2-[4-(trifluoromethyl)-1,3-oxazol-2-yl]acetyl}pyrrolidine-2-carboxamide]?
IC50 [1]: 49 nM; IC50 [2]: 610 nM
